Data as given in patent US7235577B1 (priority 2000, dated 2007).

tested on: not given; assay: not given; conditions: not given

melting point [°C] | SMILES
86 | OC(c1ccccc1)(c1cccs1)c1cccs1 [Compound T35, Di-(2-thienyl)phenyl methanol]
228 | Clc1ccccc1C(NCCNC(c1ccccc1)(c1ccccc1)c1ccccc1Cl)(c1ccccc1)c1ccccc1 [Compound T48, N,N-1,2-[(2-Chlorophenyl)diphenylmethyl]-amino ethane]
225 | NC(=O)NC(c1ccccc1)(c1ccccc1)c1ccccc1F [Compound T45, N-[(2-Fluorophenyl)diphenylmethyl] urea]
184 | Clc1ccccc1C(c1ccccc1)(c1ccccc1)n1cccc1
243 | NC(=O)NC(c1ccccc1)(c1ccccc1)c1ccccc1Cl
213 | c1ccc(C(Nc2nccs2)(c2ccccc2)c2ccccc2)cc1

molecular target: human IKCa1 channel (Homo sapiens, UniProt O15554); assay: cell-based; conditions: not given
Experimental: COS-7 cells, maintained in Dulbecco's modified Eagle's medium (DMEM) containing 10% heat-inactivated fetal calf serum, 4 mM L-glutamine and 1 mM Na^+ pyruvate, were transiently transfected with hlKCa1.
Electrophysiological experiments were carried out in the whole-cell configuration of the patch-clamp technique using an EPC-9 amplifier (HEKA Elektronik, Lambrecht Germany) interfaced to a computer running acquisition and analysis software (Pulse and Pulsfit; HEKA Elektronik). Pipettes were pulled from soft glass capillaries, coated with Sylgard (Dow-Corning, Midland, Mich.), and fire polished to resistances of 2.0–4.5 MΩ measured in the bath. COS-7 cells were trypsinized and plated on glass coverslips 3 h before measurement. […] To prevent activation of the native chloride channels in COS-7 cells an aspartate Ringer solution was used as an external solution (160 mM Na^+ aspartate, 4.5 mM KCl, 2 mM CaCl2, 1 mM MgCl2, 5 mM HEPES, adjusted to pH 7.4 with NaOH, with an osmolarity of 290–310 mosM). 200 ms voltage ramps from −120 mV to 40 mV every 10 s were used. The holding potential in all experiments was −80 mV. Series resistance compensation was not employed. The reduction of slope conductance at −80 mV was used to determine the Kd-value by fitting the values to the Hill equation with a Hill coefficient of unity.

Sequence of human IKCa1 channel (O15554 whole entry): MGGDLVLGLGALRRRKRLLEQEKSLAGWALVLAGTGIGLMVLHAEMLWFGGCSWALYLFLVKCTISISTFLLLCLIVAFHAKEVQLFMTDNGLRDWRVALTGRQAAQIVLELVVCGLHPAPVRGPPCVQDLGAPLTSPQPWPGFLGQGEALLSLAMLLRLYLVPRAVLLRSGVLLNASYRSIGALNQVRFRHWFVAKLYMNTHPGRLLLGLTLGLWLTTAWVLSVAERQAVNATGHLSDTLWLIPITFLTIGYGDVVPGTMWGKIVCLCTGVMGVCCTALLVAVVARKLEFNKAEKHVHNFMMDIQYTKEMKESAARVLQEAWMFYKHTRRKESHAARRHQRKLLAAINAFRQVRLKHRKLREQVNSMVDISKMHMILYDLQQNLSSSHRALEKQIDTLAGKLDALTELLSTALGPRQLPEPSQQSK

Kd [nM] | SMILES
820 | OC(c1ccccc1)(c1ccccc1)c1ccc(C(F)(F)F)cc1 [Compound T55, Diphenyl(4-trifluoromethylphenyl) methanol]
9000 | OC(c1ccccc1)(c1cccs1)c1cccs1 [Compound T35, Di-(2-thienyl)phenyl methanol]
750 | N#CC(c1ccccc1)(c1ccccc1)c1ccc(Cl)cc1 [Compound T26, 2-(4-Chlorophenyl)-2,2-diphenylacetonitrile]
1100 | c1ccc(C(c2ccccc2)(c2cccs2)n2cccn2)cc1 [Compound T38, 1-[Diphenyl(2-thienyl)methyl]-1H-pyrazole]
30000 | Clc1ccccc1C(NCCNC(c1ccccc1)(c1ccccc1)c1ccccc1Cl)(c1ccccc1)c1ccccc1 [Compound T48, N,N-1,2-[(2-Chlorophenyl)diphenylmethyl]-amino ethane]
10000 | COc1ccc(C(O)(c2ccc(OC)cc2)c2ccc(OC)cc2)cc1 [Compound T16, Tris-(4-methoxyphenyl) methanol]
10000 | COc1ccc(C(O)(c2ccccc2)c2ccc(OC)cc2)cc1 [Compound T15, Bis-(4-methoxyphenyl)phenyl methanol]
35000 | FC(F)(F)c1ccc(C(Nc2nccs2)(c2ccccc2)c2ccccc2)cc1 [Compound T61, N-Diphenyl[4-(trifluoromethyl)phenyl]-methyl-N-(1,3-thiazol-2-yl)amine]
1000 | c1ccc(C(c2ccccc2)(c2cccs2)n2ccnc2)cc1 [Compound T37, 1-[Diphenyl(2-thienyl)methyl]-1H-imidazole]
1000 | NC(=O)NC(c1ccccc1)(c1ccccc1)c1ccccc1F [Compound T45, N-[(2-Fluorophenyl)diphenylmethyl] urea]
2000 | FC(F)(F)c1ccn(C(c2ccccc2)(c2ccccc2)c2ccccc2Cl)n1 [Compound T65, 1-[(2-Chlorophenyl)diphenylmethyl]-3-(trifluorormethyl)-1H-pyrazole]
1100 | Cc1ccn(C(c2ccccc2)(c2ccccc2)c2ccccc2Cl)n1 [Compound T63, 1-[(2-Chlorophenyl)diphenylmethyl]-3-methyl-1H-pyrazole]
28000 | Clc1ccccc1C(Nc1ccccn1)(c1ccccc1)c1ccccc1 [Compound T69, N-[(2-Chlorophenyl)diphenylmethyl]-N-(2-pyridyl)amine]
650 | OC(c1ccccc1)(c1ccccc1)c1cccc(C(F)(F)F)c1 [Compound T56, Diphenyl(3-trifluoromethylphenyl) methanol]
15000 | FC(F)(F)c1ccccc1C(Nc1ncccn1)(c1ccccc1)c1ccccc1 [Compound T73, N-Diphenyl[2-(trifluoromethyl)phenyl]-methyl-N-(2-pyrimidinyl)amine]
11000 | Clc1ccc(C(Nc2ccncc2)(c2ccccc2)c2ccccc2)cc1 [Compound T70, N-[(4-Chlorophenyl)diphenylmethyl]-N-(4-pyridyl)amine]

Kd [nM] | SMILES
1500 | FC(F)(F)c1ccc(C(c2ccccc2)(c2ccccc2)n2cccn2)cc1 [Compound T60, 1-{Diphenyl[4-(trifluoromethyl)-phenyl]methyl}-1H-pyrazole]
15000 | O=[N+]([O-])c1ccc(S(=O)(=O)c2cnc(NC(c3ccccc3)(c3ccccc3)c3ccccc3Cl)s2)cc1 [Compound T81, N-{5-[(4-Nitrophenyl)sulfonyl]-1,3-thiazol-2yl}-N[(2-chlorophenyl)-(diphenyl)-methyl]amine]
8000 | Cc1csc(NC(c2ccccc2)(c2ccccc2)c2ccccc2Cl)n1 [Compound T79, N-[(2-Chlorophenyl)diphenylmethyl]-N-(4-methyl-1,3-thiazol-2yl)amine]
12000 | Fc1ccccc1C(Nc1nccs1)(c1ccccc1)c1ccccc1 [Compound T78, N-[(2-Fluorophenyl)diphenylmethyl]-N-(1,3-thiazol-2yl)amine]
40 | Fc1ccccc1C(c1ccccc1)(c1ccccc1)n1cccn1 [Compound T46, 1-[(2-Fluorophenyl)diphenylmethyl]-1H-pyrazole]
20000 | Clc1ccc(C(Nc2nccs2)(c2ccccc2)c2ccccc2)cc1 [Compound T64, N-[(4-Chlorophenyl)diphenylmethyl]-N-(1,3-thiazol-2yl)amine]
750 | OC(c1ccccc1)(c1cccs1)c1ccccc1Cl (stereo not shown) [Compound T43, (2-Chlorophenyl)(2-thienyl)phenyl methanol]
700 | OC(c1ccccc1)(c1ccccc1)c1ccccc1C(F)(F)F [Compound T54, Diphenyl(2-trifluoromethylphenyl) methanol]
12000 | Cc1cc(C)n(C(c2ccccc2)(c2ccccc2)c2ccccc2Cl)n1 [Compound T62, 1-[(2-Chlorophenyl)diphenylmethyl]-3,5-dimethyl-1H-pyrazole]
900 | Clc1ccccc1C(Nc1ncccn1)(c1ccccc1)c1ccccc1 [Compound T68, N-[(2-Chlorophenyl)diphenylmethyl]-N-(2-pyrimidyl)amine]
45 | Clc1ccccc1C(c1ccccc1)(c1ccccc1)n1cnnn1 [Compound T84, 1-[(2-Chlorophenyl)diphenylmethyl]-1H-1,2,3,4-tetrazole]
90 | Clc1ccc(C(c2ccccc2)(c2ccccc2)n2cccn2)cc1 [Compound T13, 1[(4-Chlorophenyl)diphenylmethyl]-1H-pyrazole]
800 | OC(c1ccccc1)(c1ccc(F)cc1)c1cccs1 (stereo not shown) [Compound T14, (4-Fluorophenyl)(2-thienyl)phenyl methanol]
200 | Fc1ccc(C(c2ccccc2)(c2ccccc2)n2cccn2)cc1 [Compound T28, 1-[(4-Fluorophenyl)diphenylmethyl]-1H-pyrazole]
25000 | FC(F)(F)c1ccn(C(c2ccccc2)(c2ccccc2)c2ccccc2C(F)(F)F)n1 [Compound T59, 1-{Diphenyl[2-(trifluoromethyl)-phenyl]methyl}-3-(trifluoromethyl)-1H-pyrazole]
25000 | FC(F)(F)c1ccccc1C(Nc1nccs1)(c1ccccc1)c1ccccc1 [Compound T72, N-Diphenyl[2-(trifluoromethyl)phenyl]-methyl-N-(1,3-thiazol-2yl)amine]

same assay, conditions: hIKCa1 in COS-7 cells; reduction of slope conductance at −80 mV; 1 μM free Ca++ in pipette

Kd for block of IKCa1 | SMILES
No effect at 10 μM | C[n+]1ccc(C(O)(c2ccccc2)c2ccccc2)cc1 [Compound T8]
No effect at 1 μM | OC(c1ccccc1)(c1cccc(Cl)c1)c1cccc(Cl)c1 [Compound T5, Bis-(3-chlorophenyl)phenyl methanol]
No effect at 1 μM | c1ccc(C(NCCN(CCNC(c2ccccc2)(c2ccccc2)c2ccccc2)CCNC(c2ccccc2)(c2ccccc2)c2ccccc2)(c2ccccc2)c2ccccc2)cc1 [Compound T20]
No effect at 1 μM | COc1ccc(C(c2ccc(OC)cc2)(c2ccc(OC)cc2)n2cccn2)cc1 [Compound T19, 1-[Tris(4-methoxyphenyl)methyl]-1H-pyrazole]
No effect at 10 μM | O=C1c2ccccc2C(=O)N1C(c1ccccc1)(c1ccccc1)c1ccccc1Cl [Compound T71, 2-[(2-Chlorophenyl)diphenylmethyl]-1H-isoindole-1,3(2H)-dione]
No effect at 1 μM | Clc1ccccc1C(c1ccccc1)(c1ccccc1)n1cnc2ccccc21 [Compound T85, 1-[(2-Chlorophenyl)diphenylmethyl]-1H-1,3-benzimidazole]

same assay, conditions: read-out: Kd for block of IKCa1; hIKCa1 in COS-7 cells; reduction of slope conductance at −80 mV; 1 μM free Ca++ in pipette

Kd [nM] | SMILES
10000 | C[n+]1ccn(C(c2ccccc2)(c2ccccc2)c2ccccc2Cl)c1 [Compound T30]
5000 | NC(c1ccccc1)(c1ccccc1)c1ccc(F)cc1 [Compound T42, (4-Fluorophenyl)diphenylmethyl amine]
800 | CCOC(=O)C(C(=O)OCC)C(c1ccccc1)(c1ccccc1)c1ccccc1Cl [Compound T77]
2000 | NC(c1ccccc1)(c1ccccc1)c1ccccc1F [Compound T47, (2-Fluorophenyl)diphenylmethyl amine]
35000 | COc1ccc(C(C#N)(c2ccccc2)c2ccc(OC)cc2)cc1 [Compound T17]
1500 | c1ccc(C(c2ccccc2)(c2ccccc2)n2ccnc2)cc1 [Compound T86]
5000 | NC(c1ccccc1)(c1ccccc1)c1ccccc1Cl [Compound T41, (2-chlorophenyl)diphenylmethyl amine]
2500 | NC(c1ccccc1)(c1ccccc1)c1ccccc1C(F)(F)F [Compound T82, (2-Trifluoromethylphenyl)-diphenylmethyl amine]
40000 | COc1ccc(C(C#N)(c2ccc(OC)cc2)c2ccc(OC)cc2)cc1 [Compound T18]

same assay, conditions: refers to TABLE 8

SMILES | IKCa1 inhibition compared with clotrimazole
Fc1ccccc1C(c1ccccc1)(c1ccccc1)n1cccn1 [Compound T46, 1-[(2-Fluorophenyl)diphenylmethyl]-1H-pyrazole] | more potent inhibitors of IKCa1 channels than clotrimazole
Clc1ccccc1C(c1ccccc1)(c1ccccc1)n1cnnn1 [Compound T84, 1-[(2-Chlorophenyl)diphenylmethyl]-1H-1,2,3,4-tetrazole] | more potent inhibitors of IKCa1 channels than clotrimazole
